From US3989835A, “Method of using 6-substituted amino phenyl-2,3,5,6-tetra-hydro[2,1-b]thiazoles for controlling gastrointestinal nematodes” (American Cyanamid Company, priority 1974, dated 1976)
Several values for one entry are separate records, joined by “and”; a condition that tells them apart may be missing. Identical values can stand only once. Counter-ions that a name gives are not always drawn. Like-named read-outs stand apart in the source and are kept apart here.

Key:
[1] = test system: Nematospiroides dubius; test: Anthelmintic efficacy against N. dubius in mice, single oral dose; assay type: in vivo, Nematospiroides dubius (in albino female mice); settings: for inhibition in vivo at 5 mg/kg: single oral dose 5.0 mg./Kg.; for inhibition in vivo at 10 mg/kg: single oral dose 10 mg./Kg.
Procedure: Albino female mice are each inoculated with about 20 infectious larvae of Nematospiroides dubius. This nematode is a representative of the economical important trichostrongylis worms of ruminants and other hosts, and of nematodes in general. Twenty-two days after inoculation, groups of four randomly selected mice containing adult N. dubius are given single oral doses of test compounds dissolved or suspended in 0.4 ml. of water per 20 gram mouse. At 26 or 27 days after inoculation, treated mice and in each test four randomly selected groups of untreated mice are necropsied. The number of worms in the small intestine of each mouse are determined by microscopic examination. Average worm numbers for each treated group and for the untreated controls are computed and the percent efficacy determined by the customary formula:
(Average Worms in Control - Average Worms in Treated)/(Average Worms in Control) X 100.

[2] = in vivo; settings: for Approx. LD50 /ED50: chemotherapeutic index, mouse oral, N. dubius; for LD50: mouse, in vivo, po; for Dead/Total: mice
Text: Data on the acute oral toxicity to mice of various single oral doses of the above compounds and several analogs were obtained by conventional procedures, (Table IX hereinafter).

[3] = test system: Trichuris vulpis; test: Oral or subcutaneous activity vs. mature Trichuris vulpis in dogs (critical test); assay type: in vivo
Procedure: (§1) Dogs infected with mature adult whipworms Trichuris vulpis were treated with various single or double doses of unsubstituted or substituted tetramisole analogs by the oral or subcutaneous route (Table XI hereinafter). Whipworms passed in the feces were collected for several days, and the whipworms still present determined at necropsy. Percent efficacy was determined in these "critical" tests. […] Trichuris is a type of nematode refactory to treatment with most prior anthelmintics at well tolerated doses. Taxonomically allied nematodes, e.g., Trichinella and Capillaria are also refractory to most anthelmintics.

[4] = in vivo; settings: dog
Procedure: as §1

[5] = test system: helminths; settings: prior art compounds; cited from earlier work
[6] = test system: whipworms; settings: prior art compounds, especially in dogs; cited from earlier work
[7] = test system: helminths; test: Activity against helminths (general statement); settings: in vivo
[8] = Heligmosomoides polygyrus, po, as Base, single oral dose, mice, > indicates inactive at dose shown, read-out: Approx. ED50
[9] = Heligmosomoides polygyrus, po, mouse oral, Table IX, read-out: Approx. ED50 vs. N. dubius
[10] = Heligmosomoides polygyrus, po, single oral dose 1.25 mg./Kg., molar-adjusted, read-out: Percent Nematospiroides Activity
[11] = Heligmosomoides polygyrus, po, single oral dose 2.0 mg./Kg., molar-adjusted, read-out: Percent Nematospiroides Activity
[12] = Heligmosomoides polygyrus, po, single oral dose 4.0 mg./Kg., molar-adjusted, read-out: Percent Nematospiroides Activity
[13] = Heligmosomoides polygyrus, po, molar-adjusted, read-out: Percent Nematospiroides Activity
[14] = single oral dose 10 mg./kg., N. dubius, mice
[15] = Approx. LD50, mouse oral, Table IX
[16] = LD50, mice, adjusted to molar equivalents of tetramisole free base
[17] = oral 5 Mg./Kg., based on total worms in all dogs

Cl.Cl.Nc1cccc(C2CN3CCSC3=N2)c1 (racemic) [dl-m-aminotetramisole, 6-(m-Aminophenyl)-2,3,5,6-tetrahydroimidazo[2,1-b]thiazole Dihydrochloride]
ED50 [1, 8]: 1 mg/kg | ED50 [1, 9]: 1 mg/kg | ED50 ([1]; Heligmosomoides polygyrus, po, read-out: ED50 (approximate dose which removes 50% of the worms), N. dubius in mice, single oral dose): ~1 mg/kg | inhibition in vivo at 1.25 mg/kg [1, 10]: 57% | inhibition in vivo at 2 mg/kg [1, 11]: 92% | inhibition in vivo at 4 mg/kg [1, 12]: 100% | inhibition in vivo at 5 mg/kg [1, 13]: 100% | inhibition in vivo at 10 mg/kg [1, 13]: 100% | superiority over tetramisole at dose required to attain 85 - 88% efficacy ([1]; N. dubius in mice): approximately eightfold superiority | activity in words ([1]; N. dubius in mice, oral): unusually high activity | activity relative to tetramisole ([1]; from ED50s against N. dubius in mice): approximately nine times as active as tetramisole | activity in words ([1]; single dose oral ED50 against N. dubius in mice): unexpected high activity | Average % Efficacy ([1]; single oral dose 0.5 mg./kg.): 5% | % Efficacy per Group ([1]; single oral dose 0.5 mg./kg., Dihydrochloride): 2% and 6% and 8% | Average % Efficacy ([1]; single oral dose 1.00 mg./kg.): 50% | Average % Efficacy ([1]; single oral dose 1.25 mg./kg.): 81% | % Efficacy per Group ([1]; single oral dose 1.25 mg./kg., Dihydrochloride): 80% and 82% | Average % Efficacy ([1]; single oral dose 2.0 mg./kg.): 85% | % Efficacy per Group ([1]; single oral dose 2.0 mg./kg., Dihydrochloride): 77% and 78% and 82% and 83% and 88% and 92% and 98% | % Efficacy per Group ([1]; single oral dose 4 mg./kg.): 100% | Average % Efficacy ([1]; single oral dose 4 mg./kg.): 100% | % Efficacy per Group ([1]; single oral dose 5 mg./kg.): 100% | Average % Efficacy ([1]; single oral dose 5 mg./kg.): 100% | % Efficacy per Group [1, 14]: 100% | Average % Efficacy [1, 14]: 100% | Approx. LD50 /ED50 ([2]; Table IX): 15 | LD50 [2, 15]: 15 mg/kg | LD50 [2, 16]: ~20 mg/kg | Dead/Total ([2]; single oral dose 4-5 Mg./Kg.): 0/8 | Dead/Total ([2]; single oral dose 10 Mg./Kg.): 2/29 | Dead/Total ([2]; single oral dose 15 Mg./Kg.): 7/14 | Dead/Total ([2]; single oral dose 20 Mg./Kg.): 10/12 | Dead/Total ([2]; single oral dose 40 Mg./Kg.): 4/4 | % Efficacy SC ([3]; SC 2.5 Mg./Kg.): 92% | % Efficacy SC ([3]; SC 5 Mg./Kg.): 100% | % Efficacy Orally ([3]; oral 2.5 Mg./Kg.): 99% | % Efficacy Orally [3, 17]: 98% | MTD ([4]; po): 7.5 mg/kg | MTD ([4]; sc): 5 mg/kg

c1ccc(C2CN3CCSC3=N2)cc1 (racemic) [dl-tetramisole, dl-6-phenyl-2,3,5,6-tetrahydroimidazo[2,1-b]thiazole, reference compound]
ED50 ([1]; Heligmosomoides polygyrus, read-out: ED50 (approximate dose which removes 50% of the worms), N. dubius in mice, single oral dose): ~9 mg/kg | ED50 ([1]; Heligmosomoides polygyrus, as Base, single oral dose, mice, > indicates inactive at dose shown, read-out: Approx. ED50): 9 mg/kg | ED50 ([1]; Heligmosomoides polygyrus, mouse oral, Table IX, read-out: Approx. ED50 vs. N. dubius): 9 mg/kg | Average % Efficacy ([1]; single oral dose 6 mg./kg.): 7% | % Efficacy per Group ([1]; single oral dose 8 mg./kg.): 28% and 33% and 39% | Average % Efficacy ([1]; single oral dose 8 mg./kg.): 33% | Average % Efficacy [1, 14]: 70% | % Efficacy per Group ([1]; single oral dose 12 mg./kg.): 60% and 62% and 68% and 73% | Average % Efficacy ([1]; single oral dose 12 mg./kg.): 66% | % Efficacy per Group ([1]; single oral dose 16 mg./kg.): 74% and 91% and 92% and 94% | Average % Efficacy ([1]; single oral dose 16 mg./kg.): 88% | % Efficacy per Group ([1]; single oral dose 20 mg./kg.): 96% and 98% and 99% and 100% | Average % Efficacy ([1]; single oral dose 20 mg./kg.): 98% | oral dose at which inactive (% Efficacy Orally column) ([3]; > means inactive at dose shown, oral): > 10 mg/kg | % Efficacy SC ([3]; SC 10 Mg./Kg., listed as dl H): 2% | activity against helminths in words [5]: highly effective against most helminths | activity against whipworms in words [6]: not sufficiently active against whipworms, especially in dogs

O=CNc1cccc(C2CN3CCSC3=N2)c1 (racemic) [m-NH--HCO dl, 3'-(2,3,5,6-Tetrahydroimidazo[2,1-b-]thiazol-6-yl)-formanilide]
ED50 [1, 8]: 3 mg/kg | ED50 [1, 9]: 3 mg/kg | inhibition in vivo at 4 mg/kg [1, 12]: 79% | inhibition in vivo at 10 mg/kg [1, 13]: 97% | Approx. LD50 /ED50 ([2]; Table IX): 10 | LD50 [2, 15]: 30 mg/kg | LD50 [2, 16]: ~30 mg/kg | Dead/Total ([2]; single oral dose 4-5 Mg./Kg.): 0/8 | Dead/Total ([2]; single oral dose 10 Mg./Kg.): 0/4 | Dead/Total ([2]; single oral dose 20 Mg./Kg.): 1/10 | Dead/Total ([2]; single oral dose 40 Mg./Kg.): 12/13 | % Efficacy Orally ([3]; oral 1.25 Mg./Kg.): 21% | % Efficacy Orally ([3]; oral 2.5 Mg./Kg.): 83% | % Efficacy Orally [3, 17]: 100% | MTD ([4]; po): 7.5 mg/kg | MTD ([4]; sc): > 5 mg/kg

O=CNc1cccc(C2CN3CCSC3=N2)c1 (stereo not drawn) [HNCHO l-]
inhibition in vivo at 1.25 mg/kg [1, 10]: 61% | inhibition in vivo at 2 mg/kg [1, 11]: 72% | inhibition in vivo at 5 mg/kg [1, 13]: 95% | inhibition in vivo at 10 mg/kg [1, 13]: 100% | LD50 [2, 16]: ~30 mg/kg | % Efficacy Orally ([3]; oral 1.25 Mg./Kg.): 46% | % Efficacy Orally ([3]; oral 2.5 Mg./Kg.): 100% | MTD ([4]; po): 2.5 mg/kg

c1ccc(C2CN3CCSC3=N2)cc1 (stereo not drawn) [l H, l-6-phenyl-2,3,5,6,-tetrahydroimidazo[2,1-b]thiazole, reference compound]
% Efficacy SC ([3]; SC 5 Mg./Kg.): 8% | % Efficacy SC ([3]; SC 10 Mg./Kg.): 50% | % Efficacy SC ([3]; SC 15 Mg./Kg.): 43% | % Efficacy SC ([3]; SC 20 Mg./Kg.): 100% | activity against helminths in words [5]: highly effective against most helminths | activity against whipworms in words [6]: not sufficiently active against whipworms, especially in dogs

Nc1cccc(C2CN3CCSC3=N2)c1 (stereo not drawn) [m-NH2 l, l-6-(m-Aminophenyl)-2,3,5,6-tetrahydroimidazo[2,1-b]thiazoleDihydrochloride]
ED50 [1, 9]: 0.75 mg/kg | Percent Nematospiroides Activity ([1]; single oral dose 1.25 mg./Kg., molar-adjusted): 59% | Percent Nematospiroides Activity ([1]; single oral dose 2.0 mg./Kg., molar-adjusted): 88% | Percent Nematospiroides Activity ([1]; single oral dose 4.0 mg./Kg., molar-adjusted): 98% | Approx. LD50 /ED50 ([2]; Table IX): 20 | LD50 [2, 15]: 15 mg/kg | LD50 [2, 16]: ~15 mg/kg | Dead/Total ([2]; single oral dose 4-5 Mg./Kg.): 0/12 | Dead/Total ([2]; single oral dose 10 Mg./Kg.): 2/10 | Dead/Total ([2]; single oral dose 15 Mg./Kg.): 3/9 | Dead/Total ([2]; single oral dose 20 Mg./Kg.): 4/5 | % Efficacy SC ([3]; SC 1.25 Mg./Kg.): 72% | % Efficacy SC ([3]; SC 2.5 Mg./Kg.): 100% | % Efficacy Orally ([3]; oral 1.25 Mg./Kg.): 94% | % Efficacy Orally ([3]; oral 2.5 Mg./Kg.): 100% | % Efficacy Orally [3, 17]: 100% | MTD ([4]; po): 10 mg/kg | MTD ([4]; sc): 4 mg/kg | activity relative to the dl compound [7]: almost twice as active as the dl compound

CNc1cccc(C2CN3CCSC3=N2)c1.Cl.Cl (stereo not drawn) [m-NH--CH3 dl, 2,3,5,6-Tetrahydro-6-(m-methylaminophenyl)imidazo[2,1-b]thiazole Dihydrochloride]
ED50 [1, 8]: 7 mg/kg | ED50 [1, 9]: 7 mg/kg | inhibition in vivo at 2 mg/kg [1, 11]: 28% | inhibition in vivo at 10 mg/kg [1, 13]: 66% | inhibition in vivo at 20 mg/kg ([1]; Heligmosomoides polygyrus, po, single oral dose 20 mg./Kg., molar-adjusted, read-out: Percent Nematospiroides Activity): 100% | inhibition in vivo at 30 mg/kg ([1]; Heligmosomoides polygyrus, po, single oral dose 30 mg./Kg., molar-adjusted, read-out: Percent Nematospiroides Activity): 100% | Approx. LD50 /ED50 ([2]; Table IX): 14 | LD50 [2, 15]: 100 mg/kg | Dead/Total ([2]; single oral dose 20 Mg./Kg.): 0/4 | Dead/Total ([2]; single oral dose 50 Mg./Kg.): 0/4 | Dead/Total ([2]; single oral dose 100 Mg./Kg.): 2/5 | % Efficacy SC ([3]; SC 2.5 Mg./Kg.): 29% | % Efficacy SC ([3]; SC 5 Mg./Kg.): 94% | % Efficacy Orally [3, 17]: 100% | MTD ([4]; po): > 10 mg/kg | MTD ([4]; sc): 30 mg/kg
